This note sets out measurements from paper PMC9964268, “A Novel, Highly Potent NADPH-Dependent Cytochrome P450 Reductase from Waste Liza klunzingeri Liver” (Marine Drugs, 2023).

The experiment deals with T1, LkCPR; NADPH-dependent cytochrome P450 reductase from Liza klunzingeri liver.
T1 construct: gene POR; native, purified from liver microsomes (detergent-solubilised; DEAE-Sepharose twice, 2',5'-ADP Sepharose 4B); about 75 kDa, monomer
Description: cytochrome c reduction at […] nm, Michaelis-Menten fit. As to conditions: co-substrate cytochrome c at saturation (50 µM); potassium phosphate pH 7.5; room temperature; apparent Km. The experiment is classed as biochemical, Planiliza klunzingeri.

As usually defined, the Km is the concentration of substrate that gives half-maximal velocity. For `NC(=O)C1=CN([C@@H]2O[C@H](COP(=O)(O)OP(=O)(O)OC[C@H]3O[C@@H](n4cnc5c(N)ncnc54)[C@H](OP(=O)(O)O)[C@@H]3O)[C@@H](O)[C@H]2O)C=CC1` [NADPH], the Km was 7.26 ± 0.2 µM.
